Experimental data published in patent US20220125051A1, “PRE-HARVEST DESICCATION METHOD” (SYNGENTA CROP PROTECTION AG, priority 2019, published 2022).
Read-outs that look alike come from different tables or passages of the source.

Legend:
Assay in all cases: Post-emergence efficacy, Method A
Assay type in all cases: in vivo
[1] = tested on: Chenopodium album (CHEAL); conditions: evaluated after 13 days; for pest or weed control at 500 g/ha: Chenopodium album, post-emergence, 312 h
Summary of the method: (§1)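 Plants grown 14 days in glasshouse (24/16 °C, 14 h light, 65% humidity) were sprayed with compound formulated in IF50. The spray was diluted in 0.25% or 1% Empicol ESC70 plus 1% ammonium sulphate. Damage was scored 13 days later on a 0-100 scale, where 100 is total damage.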

Setaria faberi (SETFA) = conditions: evaluated after 13 days; for pest or weed control at 500 g/ha: Setaria faberi, post-emergence, 312 h
Summary of the method: as §1

[2] = tested on: Euphorbia heterophylla (EPHHL); conditions: evaluated after 13 days; for pest or weed control at 500 g/ha: Euphorbia heterophylla, post-emergence, 312 h
Summary of the method: as §1

[3] = tested on: Ipomoea hederacea (IPOHE); conditions: evaluated after 13 days; for pest or weed control at 500 g/ha: Ipomoea hederacea, post-emergence, 312 h
Summary of the method: as §1

Eleusine indica (ELEIN) = conditions: evaluated after 13 days; for pest or weed control at 500 g/ha: Eleusine indica, post-emergence, 312 h
Summary of the method: as §1

Lolium perenne (LOLPE) = conditions: evaluated after 13 days; for pest or weed control at 500 g/ha: Lolium perenne, post-emergence, 312 h
Summary of the method: as §1

[4] = tested on: Digitaria sanguinalis (DIGSA); conditions: evaluated after 13 days; for pest or weed control at 500 g/ha: Digitaria sanguinalis, post-emergence, 312 h
Summary of the method: as §1

[5] = tested on: Amaranthus palmeri (AMAPA); conditions: evaluated after 13 days; for pest or weed control at 500 g/ha: Amaranthus palmeri, post-emergence, 312 h
Summary of the method: as §1

[6] = tested on: Echinochloa crus-galli (ECHCG); conditions: evaluated after 13 days; for pest or weed control at 500 g/ha: Echinochloa crus-galli, post-emergence, 312 h
Summary of the method: as §1

[7] = Application Rate 500 g/Ha, Method A, read-out: Control of weed species after post-emergence application, CHEAL (100=total damage to plant; 0=no damage to plant)
[8] = Application Rate 500 g/Ha, Method A, read-out: Control of weed species after post-emergence application, SETFA (100=total damage to plant; 0=no damage to plant)
[9] = Application Rate 500 g/Ha, Method A, read-out: Control of weed species after post-emergence application, EPHHL (100=total damage to plant; 0=no damage to plant)
[10] = Application Rate 500 g/Ha, Method A, read-out: Control of weed species after post-emergence application, IPOHE (100=total damage to plant; 0=no damage to plant)
[11] = Application Rate 500 g/Ha, Method A, read-out: Control of weed species after post-emergence application, ELEIN (100=total damage to plant; 0=no damage to plant)
[12] = Application Rate 500 g/Ha, Method A, read-out: Control of weed species after post-emergence application, LOLPE (100=total damage to plant; 0=no damage to plant)
[13] = Application Rate 500 g/Ha, Method A, read-out: Control of weed species after post-emergence application, DIGSA (100=total damage to plant; 0=no damage to plant)
[14] = Application Rate 500 g/Ha, Method A, read-out: Control of weed species after post-emergence application, AMAPA (100=total damage to plant; 0=no damage to plant)
[15] = Application Rate 500 g/Ha, Method A, read-out: Control of weed species after post-emergence application, ECHCG (100=total damage to plant; 0=no damage to plant)
[16] = Application rate 500 g/Ha, 100=total damage to plant, 0=no damage to plant, read-out: Control of weed species after post-emergence application, CHEAL
[17] = Application rate 500 g/Ha, 100=total damage to plant, 0=no damage to plant, read-out: Control of weed species after post-emergence application, SETFA
[18] = Application rate 500 g/Ha, 100=total damage to plant, 0=no damage to plant, read-out: Control of weed species after post-emergence application, EPHHL
[19] = Application rate 500 g/Ha, 100=total damage to plant, 0=no damage to plant, read-out: Control of weed species after post-emergence application, IPOHE
[20] = Application rate 500 g/Ha, 100=total damage to plant, 0=no damage to plant, read-out: Control of weed species after post-emergence application, ELEIN
[21] = Application rate 500 g/Ha, 100=total damage to plant, 0=no damage to plant, read-out: Control of weed species after post-emergence application, LOLPE
[22] = Application rate 500 g/Ha, 100=total damage to plant, 0=no damage to plant, read-out: Control of weed species after post-emergence application, DIGSA
[23] = Application rate 500 g/Ha, 100=total damage to plant, 0=no damage to plant, read-out: Control of weed species after post-emergence application, AMAPA
[24] = Application rate 500 g/Ha, 100=total damage to plant, 0=no damage to plant, read-out: Control of weed species after post-emergence application, ECHCG
[25] = Application Rate 500 g/Ha, Method A

Row | SMILES | pest or weed control at 500 g/ha [1, 7] [%] | pest or weed control at 500 g/ha (Setaria faberi (SETFA); [8]) [%] | pest or weed control at 500 g/ha [2, 9] [%] | pest or weed control at 500 g/ha [3, 10] [%] | pest or weed control at 500 g/ha (Eleusine indica (ELEIN); [11]) [%] | pest or weed control at 500 g/ha (Lolium perenne (LOLPE); [12]) [%] | pest or weed control at 500 g/ha [4, 13] [%] | pest or weed control at 500 g/ha [5, 14] [%] | pest or weed control at 500 g/ha [6, 15] [%] | pest or weed control at 500 g/ha [1, 16] [%] | pest or weed control at 500 g/ha (Setaria faberi (SETFA); [17]) [%] | pest or weed control at 500 g/ha [2, 18] [%] | pest or weed control at 500 g/ha [3, 19] [%] | pest or weed control at 500 g/ha (Eleusine indica (ELEIN); [20]) [%] | pest or weed control at 500 g/ha (Lolium perenne (LOLPE); [21]) [%] | pest or weed control at 500 g/ha [4, 22] [%] | pest or weed control at 500 g/ha [5, 23] [%] | pest or weed control at 500 g/ha [6, 24] [%] | also measured
1 | N[C@@H](C[n+]1ccc(-c2ncccn2)cn1)C(=O)O [Compound A208, [(1S)-1-carboxy-2-(4-pyrimidin-2-ylpyridazin-1-ium-1-yl)ethyl]ammonium 2,2,2-trifluoroacetate] | 80 | 60 | 50 | 20 | 60 | 10 | 40 | 100 | 30 |  |  |  |  |  |  |  |  |  | 
2 | CCOP(=O)(CC[n+]1ccc(-c2cnccn2)cn1)OCC [Compound A8] |  |  |  |  |  |  |  |  |  | 10 | 20 | 10 | 10 | 20 | 0 | 20 | 10 | 10 | 
3 | COC(=O)CC[n+]1ccc(-c2ccncc2)cn1 [Compound A203] | 90 | 60 | 50 | 20 | 60 | 0 | 70 | 100 | 50 |  |  |  |  |  |  |  |  |  | 
4 | Cc1n[n+](CCS(=O)(=O)[O-])ccc1-c1ncccn1 [Compound A88, 2-(3-methyl-4-pyrimidin-2-yl-pyridazin-1-ium-1-yl)ethanesulfonate] |  |  |  |  |  |  |  |  |  | 70 | 70 | 60 | 30 | 90 | 60 | 90 | 100 | 60 | 
5 | COc1cc(C)nc(-c2cc[n+](CCC(=O)[O-])nc2)n1 [Compound A105] |  |  |  |  |  |  |  |  |  | 20 | 90 | 50 | 0 | 20 | 50 | 60 | 90 | 40 | 
6 | O=S(=O)(O)CC[n+]1ccc(-c2cccnc2)cn1 [Compound A179] |  |  |  |  |  |  |  |  |  |  |  |  |  |  |  |  |  |  | Control of weed species after post-emergence application, CHEAL (100=total damage to plant; 0=no damage to plant) [1, 25]: 30; Control of weed species after post-emergence application, SETFA (100=total damage to plant; 0=no damage to plant) (Setaria faberi (SETFA); [25]): 60; Control of weed species after post-emergence application, EPHHL (100=total damage to plant; 0=no damage to plant) [2, 25]: 60; Control of weed species after post-emergence application, IPOHE (100=total damage to plant; 0=no damage to plant) [3, 25]: 20; Control of weed species after post-emergence application, ELEIN (100=total damage to plant; 0=no damage to plant) (Eleusine indica (ELEIN); [25]): 50; Control of weed species after post-emergence application, LOLPE (100=total damage to plant; 0=no damage to plant) (Lolium perenne (LOLPE); [25]): 10; Control of weed species after post-emergence application, DIGSA (100=total damage to plant; 0=no damage to plant) [4, 25]: 50; Control of weed species after post-emergence application, AMAPA (100=total damage to plant; 0=no damage to plant) [5, 25]: 30; Control of weed species after post-emergence application, ECHCG (100=total damage to plant; 0=no damage to plant) [6, 25]: 40
7 | O=C(O)CC[n+]1ccc(-c2cnc(C(F)(F)F)cn2)cn1 [Compound A121] |  |  |  |  |  |  |  |  |  | 80 | 30 | 80 | 20 | 20 | 30 | 40 | 100 | 40 | 
8 | COC(=O)CC[n+]1ccc(-c2ncccn2)cn1 [Compound A54, methyl 3-(4-pyrimidin-2-ylpyridazin-1-ium-1-yl)propanoate 2,2,2-trifluoroacetate] |  |  |  |  |  |  |  |  |  | 90 | 100 | 70 | 10 | 100 | 70 | 100 | 90 | 90 | 
9 | Cc1ccc(-c2cc[n+](CCS(=O)(=O)[O-])nc2)nc1 [Compound A155] | 10 | 40 | 30 | 20 | 30 | 50 | 50 | 20 | 40 |  |  |  |  |  |  |  |  |  | 
10 | O=S(=O)([O-])CC[n+]1ccc(-c2ccc(F)cn2)cn1 [Compound A72] |  |  |  |  |  |  |  |  |  | 40 | 40 | 70 | 40 | 30 | 20 | 30 | 60 | 40 | 
11 | N#Cc1cnc(-c2cc[n+](CCS(=O)(=O)[O-])nc2)cn1 [Compound A191] | 30 | 20 | 30 | 30 | 30 | 30 | 20 | 100 | 10 |  |  |  |  |  |  |  |  |  | 
12 | O=S(=O)([O-])CCC[n+]1ccc(-c2ccc(-c3ccc(Cl)nn3)nn2)cn1 [Compound A168] | 40 | 10 | 30 | 20 | 20 | 10 | 10 | 0 | 20 |  |  |  |  |  |  |  |  |  | 
13 | O=S(=O)([O-])CC[n+]1ccc(-c2ccc(Cl)cn2)cn1 [Compound A69] |  |  |  |  |  |  |  |  |  | 60 | 40 | 50 | 40 | 60 | 50 | 50 | 100 | 40 | 
14 | CCOC(=O)CC[n+]1ccc(-c2ccccn2)cn1 [Compound A91] |  |  |  |  |  |  |  |  |  | 20 | 60 | 40 | 20 | 60 | 20 | 50 | 40 | 60 | 
